The nature of series [1]: Plasma protein binding, rat. In kind it is in vitro ADME.
In series [2] the target is CYP3A4 (Homo sapiens, UniProt P08684). As to conditions: cited from earlier work.
The target in series [3] is T1, rat native NET (Rattus norvegicus, UniProt Q9WTR4).
T1 construct: other: Rat cortical membranes; mean (95% confidence intervals)
Put plainly: [3H]-nisoxetine radioligand binding, rat cortical membranes. As to conditions: mean (95% confidence intervals), read-out: Transporter Binding: pKi, NET (converted). The source says:
(§1) The in vitro pharmacology of 4-[2-(2,4,6-trifluorophenoxymethyl)phenyl]-piperidine at human recombinant and rat native monoamine transporters was characterized as described in Smith et al., Inter. J. Neuropsychopharmcol. (2015) 1-11; and Tsuruda et al., J. Pharmacol. Toxicol. Meth. (2010) 61:192-204. See also, e.g., U.S. Pat. No. 8,304,432 B2 and U.S. Pat. No. 8,304,433 B2. Radioligands were sourced commercially (Perkin Elmer LifeSciences or GE Healthcare Life Sciences).
(§2) Briefly, membranes prepared from HEK293 (Human Embryonic Kidney 293) or CHO-K1 (Chinese Hamster Ovary-K1) cells stably transfected with human recombinant SERT (HEK293-hSERT), NET (HEK293-hNET), or DAT (CHO-KT-hDAT) were incubated for 1 hr at 22° C. in the absence, or presence, of 4-[2-(2,4,6-trifluorophenoxymethyl)phenyl]piperidine and [^3H]-citalopram (1.0 nM) for SERT, [^3H]-nisoxetine (2.0 nM) for NET, and [^3H]-WIN35428 (3.0 nM) for DAT in 50 mM Tris-HCl, 120 mM NaCl, 5 mM KCl, 0.025% BSA, 100 μM ascorbic acid, pH 7.4. Rat cortical membrane preparations were incubated with [^3H]-citalopram (2.0 nM) for SERT or [3H]-nisoxetine (4.0 nM) for NET for 1 hr at 22° C. […] Binding and uptake assays were terminated by rapid filtration and radioactivity determined by liquid scintillation spectroscopy.

The test system of series [4] is rat native NET. Put plainly: [3H]-NE uptake inhibition in rat cortical synaptosomes. In kind it is biochemical.
From the text: as §1, §2

A short description of series [5]: Plasma protein binding, human. In kind it is in vitro ADME.
Series [6] has as its target T2, CYP1A2 (Homo sapiens, UniProt P05177).
T2 sequence (P05177 1-516): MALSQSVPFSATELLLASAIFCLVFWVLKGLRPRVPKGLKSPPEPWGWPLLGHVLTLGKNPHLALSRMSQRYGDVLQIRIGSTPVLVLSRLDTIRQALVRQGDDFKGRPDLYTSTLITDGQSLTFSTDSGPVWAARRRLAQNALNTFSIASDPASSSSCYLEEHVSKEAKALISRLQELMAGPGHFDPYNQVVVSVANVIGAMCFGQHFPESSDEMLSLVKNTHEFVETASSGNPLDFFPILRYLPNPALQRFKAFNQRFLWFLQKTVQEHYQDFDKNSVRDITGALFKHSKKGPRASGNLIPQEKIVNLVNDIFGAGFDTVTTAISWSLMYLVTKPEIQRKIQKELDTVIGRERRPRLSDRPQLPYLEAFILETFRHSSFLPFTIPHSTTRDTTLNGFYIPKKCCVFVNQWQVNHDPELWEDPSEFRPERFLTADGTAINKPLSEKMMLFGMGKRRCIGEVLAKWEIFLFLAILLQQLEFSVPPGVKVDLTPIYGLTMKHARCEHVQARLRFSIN
As to conditions: cited from earlier work.

Series [7] has as its system tyramine pressor response. Put plainly: Cardiovascular model in anesthetized rat: inhibition of tyramine pressor response. In kind it is in vivo. As to conditions: iv, read-out: estimated potency for inhibition of tyramine-induced increase in SBP (Tyr EC50).
Series [8] deals with T3, human recombinant NET (Homo sapiens, UniProt P23975).
T3 construct: expressed in transfected cells; host or cells: HEK293
T3 sequence (P23975 whole entry): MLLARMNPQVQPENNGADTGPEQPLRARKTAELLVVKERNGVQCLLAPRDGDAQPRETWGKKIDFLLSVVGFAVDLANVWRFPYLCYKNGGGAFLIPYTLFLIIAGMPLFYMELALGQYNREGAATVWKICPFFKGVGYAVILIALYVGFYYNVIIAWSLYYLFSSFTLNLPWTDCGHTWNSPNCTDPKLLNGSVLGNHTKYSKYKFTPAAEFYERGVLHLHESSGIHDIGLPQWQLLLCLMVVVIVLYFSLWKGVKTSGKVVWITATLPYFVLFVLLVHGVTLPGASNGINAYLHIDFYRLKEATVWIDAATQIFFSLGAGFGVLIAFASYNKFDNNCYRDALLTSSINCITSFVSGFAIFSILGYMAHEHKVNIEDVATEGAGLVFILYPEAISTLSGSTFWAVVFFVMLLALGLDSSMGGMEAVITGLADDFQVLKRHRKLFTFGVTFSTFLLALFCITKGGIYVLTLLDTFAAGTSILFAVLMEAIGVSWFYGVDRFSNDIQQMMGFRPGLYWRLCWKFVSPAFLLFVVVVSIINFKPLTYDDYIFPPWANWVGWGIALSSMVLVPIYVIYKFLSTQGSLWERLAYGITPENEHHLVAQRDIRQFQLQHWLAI
Put plainly: [3H]-NE neurotransmitter uptake inhibition in HEK293-hNET cells. In kind it is cell-based. The note with it: human transporters.
From the text: as §1, §2

Data on one compound can be found in US10238642B2, “Methods for treating neurogenic orthostatic hypotension” (Theravance Biopharma R&D IP, LLC, priority 2016, dated 2019).

pEC50: −log10 of the molar value.

By fraction unbound is commonly meant free concentration divided by total concentration. Low readings indicate extensive binding, high ones weak binding. Usually pEC50 stands for −log10 of the EC50, conventionally taken in molar units.

T1 sequence (Q9WTR4 1-597): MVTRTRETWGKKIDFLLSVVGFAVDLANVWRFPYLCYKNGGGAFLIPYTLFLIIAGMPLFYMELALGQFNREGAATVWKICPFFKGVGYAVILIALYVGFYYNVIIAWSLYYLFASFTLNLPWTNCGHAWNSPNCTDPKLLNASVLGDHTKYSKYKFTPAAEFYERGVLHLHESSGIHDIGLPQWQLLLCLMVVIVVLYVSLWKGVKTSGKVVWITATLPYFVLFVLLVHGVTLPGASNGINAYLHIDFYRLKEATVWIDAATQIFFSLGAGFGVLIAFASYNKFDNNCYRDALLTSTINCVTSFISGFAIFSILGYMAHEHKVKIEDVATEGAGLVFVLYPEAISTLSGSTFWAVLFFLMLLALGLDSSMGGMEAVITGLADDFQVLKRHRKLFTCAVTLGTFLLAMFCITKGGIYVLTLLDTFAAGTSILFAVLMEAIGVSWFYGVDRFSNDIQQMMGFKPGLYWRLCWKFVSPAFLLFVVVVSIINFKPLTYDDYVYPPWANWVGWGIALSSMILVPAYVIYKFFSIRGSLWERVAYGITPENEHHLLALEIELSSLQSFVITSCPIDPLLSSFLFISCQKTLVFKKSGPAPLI
CYP3A4, sequence (P08684 whole entry): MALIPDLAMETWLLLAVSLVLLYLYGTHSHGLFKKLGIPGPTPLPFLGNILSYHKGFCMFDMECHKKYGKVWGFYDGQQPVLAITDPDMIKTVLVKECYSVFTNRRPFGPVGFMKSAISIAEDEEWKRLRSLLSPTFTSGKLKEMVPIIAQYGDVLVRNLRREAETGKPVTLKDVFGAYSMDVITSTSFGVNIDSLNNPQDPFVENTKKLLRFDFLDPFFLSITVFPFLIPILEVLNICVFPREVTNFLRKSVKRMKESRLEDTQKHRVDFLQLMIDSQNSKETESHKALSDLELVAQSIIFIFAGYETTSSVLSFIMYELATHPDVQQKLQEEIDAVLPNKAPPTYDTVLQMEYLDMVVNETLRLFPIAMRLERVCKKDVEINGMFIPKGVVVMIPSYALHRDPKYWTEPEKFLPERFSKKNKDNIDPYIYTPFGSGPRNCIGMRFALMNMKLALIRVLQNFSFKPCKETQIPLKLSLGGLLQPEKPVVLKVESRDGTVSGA

`Fc1cc(F)c(OCc2ccccc2C2CCNCC2)c(F)c1` [4-[2-(2,4,6-trifluorophenoxymethyl)phenyl]piperidine]: the fraction unbound in series [1] was 0.098; in series [5] it was 0.209. Moreover, in series [2], the “reduction of metabolism by chemical inhibition of CYP3A4” value was 34%. Besides, the Ki in series [3] was 2 nM. In series [4], the “apparent functional selectivity for NET over SERT” value was 10 fold. The “reduction of metabolism by chemical inhibition of CYP1A2” value in series [6] is 25%. Further, the pEC50 in series [7] is 9.07. Further, the “higher potency for inhibition of NET over SERT” value in series [8] is 4 fold.
